The conditions of this data set: 293 K; 101.33 kPa; Crystal; X-ray diffraction.

What is called mass density is the mass of a sample divided by its volume.

± gives the expanded uncertainty stated by the source.

With `CCCCCCCCCCCCN.Cl` [dodecanamine hydrochloride], the mass density is given as 1022 ± 2 kg/m3.

Values taken from the NIST ThermoML archive (doi:10.1016/j.tca.2009.05.015).
